Results from US11453683B1, “KRas G12D inhibitors” (Mirati Therapeutics, Inc., priority 2019, dated 2022).
pIC50: −log10 of the molar value. Where a name gives a salt, the structure may show the parent alone.

The molecules below were run on KRas G12D-mediated phosphorylation of ERK (assay: Inhibition of KRas G12D-mediated phosphorylation of ERK in AGS cells). Conditions: Homo sapiens; AGS cells expressing G12D, 3 hours, phospho-ERK normalized to GAPDH.
Type: cell-based
Procedure, shortened: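 In-cell Western: p-ERK Thr202/Tyr204 signal over GAPDH, as % of DMSO control, with IC50 from a 4-parameter curve. AGS cells seeded 40,000/well for 12-14 h, exposed to compound 3 h at 0.5% DMSO final, then formaldehyde-fixed and methanol-permeabilized.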

| Compound | pIC50 |
| --- | --- |
| Fc1c(-c2cncc3cccc(Cl)c23)ncc2c(N3C[C@H]4CC[C@@H](C3)N4)nc(OC[C@]34CCCN3C[C@@H](F)C4)nc12 [Example 203, 4-((1R,5S)-3,8-diazabicyclo[3.2.1]octan-3-yl)-7-(5-chloroisoquinolin-4-yl)-8-fluoro-2-(((2S,7aR)-2-fluorotetrahydro-1H-pyrrolizin-7a(5H)-yl)methoxy)pyrido[4,3-d]pyrimidine] | 5.66 |
| C#Cc1cccc2cncc(-c3ncc4c(N5C[C@H]6CC[C@@H](C5)N6)nc(OC[C@]56CCCN5C[C@@H](F)C6)nc4c3F)c12 [Example 204, 4-((1R,5S)-3,8-diazabicyclo[3.2.1]octan-3-yl)-7-(5-ethynylisoquinolin-4-yl)-8-fluoro-2-(((2S,7aR)-2-fluorotetrahydro-1H-pyrrolizin-7a(5H)-yl)methoxy)pyrido[4,3-d]pyrimidine] | 6.51 |
| C#Cc1cccc2cccc(-c3ncc4c(N5C[C@H]6CC[C@@H](C5)N6)nc(OC[C@]56CCCN5C[C@@H](F)C6)nc4c3F)c12 [Example 205, 4-((1R,5S)-3,8-diazabicyclo[3.2.1]octan-3-yl)-7-(8-ethynylnaphthalen-1-yl)-8-fluoro-2-(((2S,7aR)-2-fluorotetrahydro-1H-pyrrolizin-7a(5H)-yl)methoxy)pyrido[4,3-d]pyrimidine] | 6.62 |
| C#Cc1cccc2cccc(-c3ncc4c(N5C[C@H]6CC[C@@H](C5)N6)nc(OC[C@@H]5CCCN5C)nc4c3F)c12 [Example 206, 4-((1R,5S)-3,8-diazabicyclo[3.2.1]octan-3-yl)-7-(8-ethynylnaphthalen-1-yl)-8-fluoro-2-(((S)-1-methylpyrrolidin-2-yl)methoxy)pyrido[4,3-d]pyrimidine] | 6.05 |
| CN1C[C@H](NC(=O)c2cccc(S(=O)(=O)F)c2)C[C@H]1COc1nc(N2C[C@H]3CC[C@@H](C2)N3)c2cnc(-c3cccc4cccc(Cl)c34)c(F)c2n1 [Example 211, 3-(((3R,5S)-5-(((4-((1R,5S)-3,8-diazabicyclo[3.2.1]octan-3-yl)-7-(8-chloronaphthalen-1-yl)-8-fluoropyrido[4,3-d]pyrimidin-2-yl)oxy)methyl)-1-methylpyrrolidin-3-yl)carbamoyl)benzenesulfonyl fluoride tris(2,2,2-trifluoroacetate)] | 4.87 |
| CN1CCC[C@H]1COc1nc(N2CC3CCC(C=O)(C2)N3)c2cnc(-c3cc(O)cc4ccccc34)c(F)c2n1 (stereo partly drawn) [Example 214, 3-(8-fluoro-7-(3-hydroxynaphthalen-1-yl)-2-(((S)-1-methylpyrrolidin-2-yl)methoxy)pyrido[4,3-d]pyrimidin-4-yl)-3,8-diazabicyclo[3.2.1]octane-1-carbaldehyde] | < 4.78 |
| CN1CCC[C@H]1COc1nc(N2CC3CCC(CO)(C2)N3)c2cnc(-c3cc(O)cc4ccccc34)c(F)c2n1 (stereo partly drawn) [Example 215, 4-(8-fluoro-4-(1-(hydroxymethyl)-3,8-diazabicyclo[3.2.1]octan-3-yl)-2-(((S)-1-methylpyrrolidin-2-yl)methoxy)pyrido[4,3-d]pyrimidin-7-yl)naphthalen-2-ol bis(2,2,2-trifluoroacetate)] | < 4.78 |
| CO[C@@H]1CN2CCC[C@]2(COc2nc(N3C[C@H]4CC[C@@H](C3)N4)c3cnc(-c4cccc5cccc(Cl)c45)c(F)c3n2)C1 [Example 219, 4-((1R,5S)-3,8-diazabicyclo[3.2.1]octan-3-yl)-7-(8-chloronaphthalen-1-yl)-8-fluoro-2-((2-methoxytetrahydro-1H-pyrrolizin-7a(5H)-yl)methoxy)pyrido[4,3-d]pyrimidine bis-hydrochloride] | 5.69 |
| O[C@H]1CN2CCC[C@@]2(COc2nc(N3CC4CCC(C3)N4)c3cnc(-c4cccc5cccc(Cl)c45)c(F)c3n2)C1 [Example 223, 7a-(((4-((1R,5S)-3,8-diazabicyclo[3.2.1]octan-3-yl)-7-(8-chloronaphthalen-1-yl)-8-fluoropyrido[4,3-d]pyrimidin-2-yl)oxy)methyl)hexahydro-1H-pyrrolizin-2-ol bis-2,2,2-trifluoroacetate] | 5.37 |
| CO[C@H]1CN2CCC[C@]2(COc2nc(N3CC4CCC(C3)N4)c3cnc(-c4cccc5cccc(Cl)c45)c(F)c3n2)C1 [Example 225, 4-((1R,5S)-3,8-diazabicyclo[3.2.1]octan-3-yl)-7-(8-chloronaphthalen-1-yl)-8-fluoro-2-((2-methoxytetrahydro-1H-pyrrolizin-7a(5H)-yl)methoxy)pyrido[4,3-d]pyrimidine bis-2,2,2-trifluoroacetate] | 5.51 |
| Fc1c(-c2cccc3cccc(Cl)c23)ncc2c(N3CC4CCC(C3)N4)nc(OCC34CCCN3C[C@H](F)C4)nc12 (stereo partly drawn) [Example 226, 4-((1R,5S)-3,8-diazabicyclo[3.2.1]octan-3-yl)-7-(8-chloronaphthalen-1-yl)-8-fluoro-2-((2-fluorotetrahydro-1H-pyrrolizin-7a(5H)-yl)methoxy)pyrido[4,3-d]pyrimidine bis-hydrochloride] | 5.17 |
| CC1(C)CN2CCCC2(COc2nc(N3CC4CCC(C3)N4)c3cnc(-c4cccc5cccc(Cl)c45)c(F)c3n2)C1 [Example 228, 4-((1R,5S)-3,8-diazabicyclo[3.2.1]octan-3-yl)-7-(8-chloronaphthalen-1-yl)-2-((2,2-dimethyltetrahydro-1H-pyrrolizin-7a(5H)-yl)methoxy)-8-fluoropyrido[4,3-d]pyrimidine bis-2,2,2-trifluoroacetate] | 4.86 |
| Fc1c(-c2ccccc2OC(F)(F)F)ncc2c(N3C[C@H]4CC[C@@H](C3)N4)nc(OCC34CCCN3CCC4)nc12 [Example 229, 4-((1R,5S)-3,8-diazabicyclo[3.2.1]octan-3-yl)-8-fluoro-2-((tetrahydro-1H-pyrrolizin-7a(5H)-yl)methoxy)-7-(2-(trifluoromethoxy)phenyl)pyrido[4,3-d]pyrimidine bis-hydrochloride] | 4.95 |
| C#Cc1cccc2cc(OC)cc(-c3ncc4c(N5C[C@H]6CC[C@@H](C5)N6)nc(OCC56CCCN5CCC6)nc4c3F)c12 [Example 231, 4-((1R,5S)-3,8-diazabicyclo[3.2.1]octan-3-yl)-7-(8-ethynyl-3-methoxynaphthalen-1-yl)-8-fluoro-2-((hexahydro-1H-pyrrolizin-7a-yl)methoxy)pyrido[4,3-d]pyrimidine] | 5.55 |
| C#Cc1c(F)ccc2cc(O)cc(-c3ncc4c(N5C[C@H]6CC[C@@H](C5)N6)nc(OCC56CCCN5CCC6)nc4c3F)c12 [Example 232, 4-(4-((1R,5S)-3,8-diazabicyclo[3.2.1]octan-3-yl)-8-fluoro-2-((tetrahydro-1H-pyrrolizin-7a(5H)-yl)methoxy)pyrido[4,3-d]pyrimidin-7-yl)-5-ethynyl-6-fluoronaphthalen-2-ol] | 7.82 |
| c1ccc2c(-c3cc4nc(OCC56CCCN5CCC6)nc(N5C[C@H]6CC[C@@H](C5)N6)c4cn3)cccc2c1 [Example 233, 4-((1R,5S)-3,8-diazabicyclo[3.2.1]octan-3-yl)-7-(naphthalen-1-yl)-2-((tetrahydro-1H-pyrrolizin-7a(5H)-yl)methoxy)pyrido[4,3-d]pyrimidine] | 4.81 |
| Fc1c(-c2cccc3cccc(F)c23)ncc2c(N3C[C@H]4CC[C@@H](C3)N4)nc(OCC34CCCN3CCC4)nc12 [Example 234, 4-((1R,5S)-3,8-diazabicyclo[3.2.1]octan-3-yl)-8-fluoro-7-(8-fluoronaphthalen-1-yl)-2-((tetrahydro-1H-pyrrolizin-7a(5H)-yl)methoxy)pyrido[4,3-d]pyrimidine] | 6.39 |
| Fc1c(-c2cccc3cccc(Br)c23)ncc2c(N3C[C@H]4CC[C@@H](C3)N4)nc(OCC34CCCN3CCC4)nc12 [Example 235, 4-((1R,5S)-3,8-diazabicyclo[3.2.1]octan-3-yl)-7-(8-bromonaphthalen-1-yl)-8-fluoro-2-((tetrahydro-1H-pyrrolizin-7a(5H)-yl)methoxy)pyrido[4,3-d]pyrimidine] | 6.47 |
| COc1cccc2cccc(-c3ncc4c(N5C[C@H]6CC[C@@H](C5)N6)nc(OCC56CCCN5CCC6)nc4c3F)c12 [Example 236, 4-((1R,5S)-3,8-diazabicyclo[3.2.1]octan-3-yl)-8-fluoro-2-((hexahydro-1H-pyrrolizin-7a-yl)methoxy)-7-(8-methoxynaphthalen-1-yl)pyrido[4,3-d]pyrimidine] | 5.58 |
| OCc1cccc2cccc(-c3ncc4c(N5C[C@H]6CC[C@@H](C5)N6)nc(OCC56CCCN5CCC6)nc4c3F)c12 [Example 238, (8-(4-((1R,5S)-3,8-diazabicyclo[3.2.1]octan-3-yl)-8-fluoro-2-((tetrahydro-1H-pyrrolizin-7a(5H)-yl)methoxy)pyrido[4,3-d]pyrimidin-7-yl)naphthalen-1-yl)methanol] | 5.33 |
| OCCc1cccc2cccc(-c3ncc4c(N5C[C@H]6CC[C@@H](C5)N6)nc(OCC56CCCN5CCC6)nc4c3F)c12 [Example 239, 2-(8-(4-((1R,5S)-3,8-diazabicyclo[3.2.1]octan-3-yl)-8-fluoro-2-((tetrahydro-1H-pyrrolizin-7a(5H)-yl)methoxy)pyrido[4,3-d]pyrimidin-7-yl)naphthalen-1-yl)ethan-1-ol] | 5.53 |
| NC(=O)Cc1cccc2cccc(-c3ncc4c(N5C[C@H]6CC[C@@H](C5)N6)nc(OCC56CCCN5CCC6)nc4c3F)c12 [Example 240, 2-(8-(4-((1R,5S)-3,8-diazabicyclo[3.2.1]octan-3-yl)-8-fluoro-2-((tetrahydro-1H-pyrrolizin-7a(5H)-yl)methoxy)pyrido[4,3-d]pyrimidin-7-yl)naphthalen-1-yl)acetamide] | < 4.78 |
| NCC#Cc1cccc2cccc(-c3ncc4c(N5C[C@H]6CC[C@@H](C5)N6)nc(OCC56CCCN5CCC6)nc4c3F)c12 [Example 241, 3-(8-(4-((1R,5S)-3,8-diazabicyclo[3.2.1]octan-3-yl)-8-fluoro-2-((tetrahydro-1H-pyrrolizin-7a(5H)-yl)methoxy)pyrido[4,3-d]pyrimidin-7-yl)naphthalen-1-yl)prop-2-yn-1-amine] | < 4.78 |
| CCC#Cc1cccc2cccc(-c3ncc4c(N5C[C@H]6CC[C@@H](C5)N6)nc(OCC56CCCN5CCC6)nc4c3F)c12 [Example 242, 4-((1R,5S)-3,8-diazabicyclo[3.2.1]octan-3-yl)-7-(8-(but-1-yn-1-yl)naphthalen-1-yl)-8-fluoro-2-((tetrahydro-1H-pyrrolizin-7a(5H)-yl)methoxy)pyrido[4,3-d]pyrimidine] | < 4.78 |
